Assay results published in ChEMBL document CHEMBL1153275, “Tyrokeradines A and B, new bromotyrosine alkaloids with an imidazolyl-quinolinone moiety from a verongid sponge” (2009).
In brackets after ≈: the same amount, converted by molar mass.

Experiments:
Assay type in all cases: functional
Micrococcus luteus = assay: Antimicrobial activity against Micrococcus luteus
Staphylococcus aureus = assay: Antimicrobial activity against Staphylococcus aureus
[1] = system: Trichophyton mentagrophytes; assay: Antimicrobial activity against Trichophyton mentagrophytes
Cryptococcus neoformans = assay: Antimicrobial activity against Cryptococcus neoformans
Candida albicans = assay: Antimicrobial activity against Candida albicans
Aspergillus niger = assay: Antimicrobial activity against Aspergillus niger

SMILES	MIC (Micrococcus luteus) [µg/mL]	MIC (Staphylococcus aureus) [µg/mL]	MIC [1] [µg/mL]	MIC (Cryptococcus neoformans) [µg/mL]	MIC (Candida albicans) [µg/mL]	MIC (Aspergillus niger) [µg/mL]
NCCCOc1c(Br)cc(C/C(=N\O)C(=O)NCCc2nc(N)[nH]c2-c2cc(O)c3[nH]cc(O)c(=O)c3c2O)cc1Br [TYROKERADINE B]	25 (≈ 35.2 µM)	25 (≈ 35.2 µM)	25 (≈ 35.2 µM)	12.5 (≈ 17.6 µM)	12.5 (≈ 17.6 µM)	12.5 (≈ 17.6 µM)
C[N+](C)(C)CCCOc1c(Br)cc(C/C(=N\O)C(=O)NCCc2nc(N)[nH]c2-c2cc(O)c3[nH]cc(O)c(=O)c3c2O)cc1Br [TYROKERADINE A]	> 25	> 25	> 25	> 25	> 25	> 25
